What was measured:
[1] = tested on: schizophrenia patient; assay: Case report Patient X: Roluperidone monotherapy over 2+ years; format: in vivo, human; conditions: 64 mg/day monotherapy, two years
Experimental: Patient X presented with flat effect and restricted emotional expression, poor motivation to do much more than watch television and occasionally participate in occupational therapy for a few hours a week. Patient could not fully concentrate enough to even read. During the course of monotherapy with Roluperidone (64 mg/day), patient saw gradual improvement in their negative and cognitive symptoms. This allowed the patient to find employment. Their affect is no longer restricted and they read full novels on a regular basis with no trouble concentrating, and enjoys and looks forward to all their various daily activities.

[2] = target: T1, α1A-adrenergic (Homo sapiens, UniProt P35348); conditions: background statement; cited from earlier work
T1 sequence (P35348 1-466): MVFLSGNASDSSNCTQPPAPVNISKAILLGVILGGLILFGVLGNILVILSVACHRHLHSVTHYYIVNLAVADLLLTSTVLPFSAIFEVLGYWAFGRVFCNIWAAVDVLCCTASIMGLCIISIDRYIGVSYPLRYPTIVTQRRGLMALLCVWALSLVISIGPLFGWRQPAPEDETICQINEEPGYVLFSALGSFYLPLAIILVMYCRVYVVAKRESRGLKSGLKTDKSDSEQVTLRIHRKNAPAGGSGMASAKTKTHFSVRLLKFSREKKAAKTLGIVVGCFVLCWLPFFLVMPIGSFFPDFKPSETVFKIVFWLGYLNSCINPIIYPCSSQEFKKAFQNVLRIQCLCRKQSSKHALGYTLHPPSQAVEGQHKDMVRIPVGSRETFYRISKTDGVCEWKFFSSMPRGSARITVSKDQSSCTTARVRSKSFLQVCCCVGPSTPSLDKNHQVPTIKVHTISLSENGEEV

## 1H-Isoindol-1-one,2-[ [1-[2-(4-fluorophenyl)-2-oxoethyl]-4-piperidinyl]methyl]-2,3-dihydro-, hydrochloride, hydrate (1:1:2) [Roluperidone]
[1]
  Relapse under monotherapy: has not had a relapse
[2]
  Antagonistic activity: antagonistic activities

Reference: patent US20230255953A1, “USE OF ROLUPERIDONE IN PREVENTING RELAPSE IN SCHIZOPHRENIA PATIENTS” (Minerva Neurosciences, Inc., priority 2022, published 2023)
